This note sets out measurements from PubChem BioAssay (NCI).

Holding throughout (test): NCI anticancer screen, dose series, 48 h
Assay [1] relates to 786-0 renal.
The subject of assay [2] is ACHN renal.
For assay [3], the system named is CCRF-CEM leukemia.
Assay [4] deals with HL-60(TB) leukemia.
Assay [5] deals with M14 melanoma.
The subject of assay [6] is NCI-H460 lung.
The test system of assay [7] is SF-539 CNS.
Assay [8] has as its system SK-OV-3 ovarian.
Assay [9] has as its system SNB-75 CNS.
The test system of assay [10] is UACC-62 melanoma.

Each structure is given as a SMILES string.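 Interpolation was linear, between the two tested concentrations surrounding the appropriate level; five concentrations were tested over 48 hours in 96-well plates. At the GI50, growth is halved. TGI denotes the concentration required for complete inhibition of growth.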 Where only a bound is given, the exact number is not on record here.

For `O=C(NCCOCCOCCOCCNC(=O)c1cc2c(o1)C(=O)c1ccccc1C2=O)NC12CC3CC(CC(C3)C1)C2`, the GI50 in assay [1] is 2.89 µM; in assay [2], 1.75 µM; in [3], 3.23 µM; in assay [4] it was 2.16 µM; in [5], 0.462 µM; in assay [6], 1.19 µM. The GI50 in assay [7] is 1.59 µM; in [8], 2.84 µM; in assay [9], 2.25 µM; in assay [10] it was 0.571 µM. Further, the TGI in assay [1] was 11 µM; in assay [2] it was 4.21 µM; in assay [3], over 100 µM; in [4], 6.46 µM; in assay [5], 1.8 µM; in [6], 2.93 µM. Also, the TGI is 3.16 µM in [7], 7.43 µM in assay [8], 4.06 µM in [9] and 1.92 µM in assay [10].

Take `Cc1nc2sc3c(N)ncnc3c2c(C)c1C`: the GI50 in assay [1], in [2], in assay [3], in [4], in assay [5] and in [6] was over 25 µM in each case. Also, the GI50 in assay [7], in assay [8], in assay [9] and in assay [10] was over 25 µM each time. In addition, the TGI in assay [1], in assay [2], in assay [3], in [4], in assay [5] and in assay [6] was over 25 µM in each case. The TGI in assay [7], in assay [8], in [9] and in assay [10] was over 25 µM each time.

`CC(=O)/C(Br)=C/c1ccc(Br)o1`: the GI50 in assay [1] is 16.5 µM; in [2], 9.5 µM; in assay [3], 2.04 µM; in assay [4], 2.53 µM; in assay [5], 4.71 µM; in assay [6], 14.2 µM. Further, the GI50 in [7] is 5 µM; in assay [8], 26.8 µM; in assay [9], 10.3 µM; in assay [10] it was 14 µM. The TGI is 34.2 µM in [1]; 22.2 µM in [2]; 5.85 µM in [3]; 8.58 µM in [4]; 13.7 µM in assay [5]; 30.9 µM in assay [6]. Besides, the TGI in [7] is 10.8 µM; in [8] it was over 65.8 µM; in [9], 33.3 µM; in assay [10], 28.3 µM.

Turning to `COc1ccccc1[As]=[As]c1ccccc1OC` (stereo not drawn), the GI50 in [1] was 0.0377 µM; in [2] it was 0.0613 µM; in assay [3], 0.026 µM; in assay [4] it was 0.0492 µM; in [5] it was 0.0407 µM; in [6], 0.096 µM. The GI50 in assay [7] is 0.0383 µM; in assay [8] it was 0.158 µM; in [9], 0.0305 µM; in [10], 0.0663 µM. The TGI in assay [1] came out at 0.0853 µM; in assay [2], 0.186 µM; in assay [3], 0.113 µM; in assay [4] it was 0.262 µM; in assay [5] it was 0.147 µM; in assay [6], 0.334 µM. The TGI in [7] was 0.144 µM; in assay [8], 0.293 µM; in assay [9], 0.13 µM; in assay [10], 0.224 µM.

For the molecule `Oc1ccc(C(O)(c2ccccc2)c2ccccc2)c2ccccc12`, the TGI in assay [1] was 6.61 µM; in assay [2], 3.73 µM; in assay [3] it was 1.8 µM; in assay [4], over 100 µM; in [5], 10.7 µM; in assay [6] it was over 100 µM. Moreover, the TGI in [7] worked out at 4.62 µM; in assay [8], 14.1 µM; in assay [9], 18.2 µM; in assay [10] it was 3.61 µM.

For `C(=C\C(Sc1ccccc1)c1ccccc1)/NNC1=NC(c2ccccc2)C(c2ccccc2)=NN1` (stereo not drawn), the TGI was over 100 µM in [1]; over 100 µM in [2]; 49.5 µM in assay [3]; 37.6 µM in assay [4]; over 100 µM in assay [5]; over 100 µM in assay [6]. Also, the TGI in [7], in [8], in [9] and in [10] was over 100 µM throughout.

On to `c1ccc2c(c1)Cc1c(Cc3csc4ccccc34)ccc3cccc-2c13`, for which the TGI in [1], in [2], in assay [3], in [4], in assay [5] and in [6] was over 100 µM throughout. Also, the TGI in [7], in assay [9] and in [10] was over 100 µM each time.

With `NC(Cc1c[nH]c2ccc([N+](=O)[O-])cc12)C(=O)O` (stereo not drawn), the TGI in assay [1], in [2], in assay [3], in assay [4], in [5] and in assay [8] was over 100 µM in each case. The TGI in [9] and in [10] was over 100 µM throughout.

In the case of `CC1(C)C(=O)C(C)(C)C1=NNC(N)=S`, the TGI in assay [1], in [2], in assay [4], in [5], in assay [6] and in [7] was over 100 µM throughout. The TGI in assay [8], in assay [9] and in assay [10] was over 100 µM each time.

Regarding `COc1cc([N+](=O)[O-])c(S(=O)(=O)O)cc1-n1nc(C(=O)Nc2ccccc2)n[n+]1-c1cc(S(=O)(=O)[O-])c([N+](=O)[O-])cc1OC`, the TGI in [1], in assay [2], in assay [3], in [4], in [5] and in assay [6] was over 100 µM in each case. Moreover, the TGI in assay [8], in assay [9] and in assay [10] was over 100 µM each time.

Take `CCc1cc2c(O)c(c1)Cc1cc(CC)cc(c1O)Cc1cc(CC)cc(c1O)Cc1cc(CC)cc(c1O)Cc1cc(CC)cc(c1O)Cc1cc(CC)cc(c1O)Cc1cc(CC)cc(c1O)C2`: the TGI in assay [1], in [2], in [3], in assay [4], in assay [5] and in [6] was over 100 µM throughout. The TGI in assay [7] is over 100 µM; in assay [9], 61.4 µM; in [10], over 100 µM.

In the case of `O=C1C=C2CCCC2C(C(=O)O)(C(=O)O)C1` (stereo not drawn), the TGI in assay [1], in assay [3], in assay [4], in assay [5], in assay [6] and in assay [7] was over 100 µM each time. Also, the TGI in assay [8], in assay [9] and in assay [10] was over 100 µM in each case.

For `O=C(N=c1nc(NC(=O)c2ccccc2)ss1)c1ccccc1`, the TGI was over 100 µM in [1]; 31.6 µM in [2]; over 100 µM in [3]; 40.6 µM in assay [4]; 76.2 µM in [5]; 39.7 µM in assay [6]. The values for the TGI in [7], in assay [8] and in assay [9] were 37.9 µM, 68.9 µM and over 100 µM, respectively.

In the case of `COc1ccc(C2C(C#N)=C(N)Oc3c2sc2c(Br)cccc32)cc1` (stereo not drawn), the GI50 in [1] was 3.25 µM; in [2] it was 4.82 µM; in [3], 1.63 µM; in [4], 1.12 µM; in [5], 1.46 µM; in [6] it was 2.08 µM. In addition, the GI50 in assay [8] was 4.68 µM; in assay [9], 1.61 µM; in assay [10], 0.996 µM. The TGI in assay [1] was 13 µM; in [2] it was 19.3 µM; in assay [3] it was 7.02 µM; in [4], 3.73 µM; in assay [5], 6.8 µM; in assay [6], 21.9 µM. In addition, the TGI was determined as 19.9 µM in [8], 8.06 µM in assay [9] and 15.4 µM in [10].

In the case of `O=C(CC1C(=O)Nc2ccccc2S1(=O)=O)Nc1ccc(Cl)cc1` (stereo not drawn), the TGI is 38.7 µM in assay [1]; 71.9 µM in assay [2]; 77.7 µM in assay [3]; 42.1 µM in assay [4]; over 100 µM in [5]; over 100 µM in assay [6]. The TGI in assay [7] is 29.7 µM; in [9] it was 37.6 µM; in assay [10], over 100 µM.

Turning to `CCC(C)C1=C(O)[N+]2([O-])Oc3ccc(C4=C(O)C(=O)C(c5ccc(O)cc5)=C(O)C4=O)cc3OC2(C(C)CC)C(=O)N1O` (stereo not drawn), the GI50 was 26.1 µM in assay [1]; 11.6 µM in assay [2]; 13.1 µM in assay [3]; 14.2 µM in assay [4]; 2.75 µM in assay [5]; 4.26 µM in assay [6]. Also, the results for the GI50 in assay [7], in assay [9] and in [10] were 15.8 µM, over 100 µM and 5.68 µM, respectively. The TGI in assay [1] is over 100 µM; in [2], over 100 µM; in assay [3] it was 76.7 µM; in [4] it was 86.7 µM; in [5], 11.5 µM; in [6], over 100 µM. Further, the TGI in assay [7] is over 100 µM; in assay [9] it was over 100 µM; in assay [10], 65.1 µM.

As to `CCCc1nc(Cl)c(Cl)c(Cl)n1`, the TGI in assay [1] is over 31.6 µM; in assay [3], over 44.2 µM; in [4] it was 37.2 µM; in [5], over 76.1 µM; in assay [6], over 100 µM; in assay [7] it was 68.6 µM. Also, the TGI in assay [8], in [9] and in [10] was over 100 µM each time.

In the case of `Cc1ccc(/C=C/C(=O)c2sc(-n3nc(-c4ccccc4)cc3-c3ccccc3)nc2C)cc1`, the TGI in assay [1], in assay [2], in assay [3], in assay [4], in assay [6] and in assay [7] was over 100 µM each time. In addition, the TGI in assay [8], in assay [9] and in assay [10] was over 100 µM throughout.

Take `CN(C)Cc1ccc(NC(=O)c2cncc(C#Cc3cnc(N)c4ncccc34)c2)cc1F`: the GI50 in assay [1] is 1.86 µM; in [2], 3.28 µM; in assay [3], 2.29 µM; in [4] it was 7.33 µM; in assay [6] it was 1.93 µM; in assay [7] it was 1.53 µM. For the same molecule, the GI50 in assay [9] was 1.38 µM; in [10] it was 1.83 µM. In addition, the TGI in assay [1] stood at 3.6 µM; in assay [2], 11.4 µM; in assay [3], 6.66 µM; in assay [4] it was 35.7 µM; in assay [6], 3.63 µM; in [7], 3.07 µM. For the same molecule, the TGI was 5.73 µM in assay [9] and 3.53 µM in [10].

In the case of `COc1cc2c(c(OC)c1OC)-c1ccc(SC)c(=O)cc1[C@@H](NC(=O)C(F)(F)F)CC2`, the TGI in assay [1] is 38.6 µM; in [2], over 72.3 µM; in [3] it was over 100 µM; in assay [4], 0.194 µM; in [5], 42.5 µM; in assay [7], under 0.01 µM. Besides, the TGI is 6.29 µM in assay [9] and over 100 µM in assay [10].

Take `COc1cc2ncnc(Nc3ccc(Oc4ccnc(C)c4)c(C)c3)c2cc1NC(=O)CC1CCSS1` (stereo not drawn): the GI50 in assay [1] is over 50 µM; in assay [2] it was 1.49 µM; in assay [3], 0.253 µM; in [4] it was 1.28 µM; in assay [7] it was 1.29 µM; in [8] it was 0.854 µM. For the same molecule, the GI50 in [9] was 1.41 µM; in assay [10], 1.26 µM. Further, the TGI was over 50 µM in assay [1]; 8.48 µM in [2]; 1.69 µM in [3]; 2.83 µM in assay [4]; over 10.7 µM in assay [7]; 1.63 µM in assay [8]. The results for the TGI in [9] and in assay [10] were over 25.2 µM and 3.71 µM, respectively.

Consider `CC1(C)c2ccccc2N2O[C@@H]3C(=O)N(c4ccccc4)C(=O)[C@@H]3C21c1ccccc1` (stereo partly drawn), for which the TGI in [1], in assay [3], in [4], in assay [5], in assay [7] and in assay [8] was over 100 µM in each case. Moreover, the TGI in assay [9] and in [10] was over 100 µM throughout.
